Data from US5571524A, “Agent for curing ischemic myocardial disease” (Unitika Ltd., priority 1994, dated 1996).

What was measured:
Type in all cases: in vivo
[1] = system: Mongrel dogs; test: Amelioration of myocardial ischemia: coronary blood flow, fractional shortening and perfusion pressure during factitious 1/3 blood flow; details: for Myocardial fractional shortening / Coronary blood flow / Coronary perfusion pressure: ischemia (1/3 blood flow); for Myocardial fractional shortening: control 26.9, 1/3 control 5.3; for Coronary blood flow: control 91.3, 1/3 control 21.2; for Coronary perfusion pressure: control 93.0, 1/3 control 57.0
Description: (§1) Mongrel dogs weighing 18-22 kg were anesthetized with pentobarbital sodium (30 mg/kg). The trachea was intubated, and the dog was ventilated with room air with oxygen. The chest was opened through the left fifth intercostal space, and the heart was suspended in a pericardial cradle. The left anterior descending coronary artery was cannulated and perfused with blood via the carotid artery through an extracorporeal bypass tube after heparinization (500 units/kg). Coronary blood flow (CBF) was measured with an electromagnetic flow probe attached to the bypass tube, and coronary perfusion pressure (CPP) was monitored at the tip of the coronary arterial cannula. A small, short collecting tube was cannulated into a small coronary vein near the center of the perfused area to sample coronary venous blood. The drained venous blood was collected in a reservoir placed at the level of the left atrium. A high fidelity of left ventricular pressure and its first derivative were measured by a micromanometer (model P-5, Konigsberg Instruments, Inc., Pasadena, Calif.) placed in the left ventricular cavity through the apex. A pair of ultrasonic crystals was placed in the center of the perfused area about 1 cm apart to measure myocardial segment length with an ultrasonic dimension gauge (5 MHz, Schuessler, Cardiff by the Sea, Calif.). End-diastolic length (EDL) was determined at the R wave of the electrocardiogram, and end-systolic length (ESL) was determined at the minimal dP/dt. Fractional shortening was calculated by (EDL-ESL)/EDL as an index of myocardial contractility of the perfused area.
(§2) After stabilization, CPP was decreased with partial occlusion of the bypass tube to the left anterior descending coronary artery such that CBF decreased to one third of the control flow. The low CPP was maintained during this test.
(§3) Blood sampling from coronary veins and coronary arteries was conducted. Then the intracoronary administration of Ap4A was stopped. The lowered coronary perfusion pressure was further maintained for 10 minutes.
(§4) The above test was repeated by replacing Ap4A with adenosine with the dosage thereof being changed to 4, 8 and 16 μg/kg/min.

[2] = system: Mongrel dogs; test: Lactate extraction ratio and pH of venous blood during ischemia; details: for pH of venous blood / Lactate extraction ratio: ischemia (1/3 blood flow); for pH of venous blood: control 7.46, 1/3 control 7.23; for Lactate extraction ratio: control 26.5, 1/3 control -67.9
Description: as §1
Namely, the lactate extraction ratio was obtained by coronary arteriovenous difference in lactate concentration multiplied by 100 and divided by arterial lactate concentration.
as §2, §3, §4
As mentioned previously, in the above-mentioned experimental systems, lactate extraction ratio and pH of venous blood were measured at the time of the intracoronary administration of Ap4A and also at the time of the intracoronary administration of adenosine.

[3] = system: Mongrel dogs; test: Coronary blood flow increase effect, nonischemic condition; details: for Coronary blood flow: 8-SPT and/or L-NAME alone, before Ap4A, N = 1 - 2
Description: as §1
After stabilization, a physiological saline solution […], with the dosage thereof increased to 0.5, 1, 2, 4 and 8 μg/kg/min, and the changes in coronary blood flow were measured in order to assess the coronary blood flow increase effect of Ap4A.
8-sulfophenyltheophylline (hereinafter referred to as 8-SPT) serving as adenosine P1 receptor antagonist with a dose of 25 μg/kg/min was tested.
The above test was also repeated by replacing 8-SPT with N^G -nitro-L-arginine methyl ester (hereinafter referred to as L-NAME) serving as an endothelial-cell-induced nitric oxide (NO) synthesis inhibitor with a dose of 3 μg/kg/min(ic).
The above test was then repeated using 8-SPT and L-NAME in combination.

[4] = adenosine 4 μg/kg/min intracoronary
[5] = adenosine 8 μg/kg/min intracoronary
[6] = adenosine 16 μg/kg/min intracoronary

Compound	Myocardial fractional shortening ([1]; adenosine 4 μg/kg/min)	Coronary blood flow ([1]; adenosine 4 μg/kg/min)	Coronary perfusion pressure ([1]; adenosine 4 μg/kg/min)	Myocardial fractional shortening ([1]; adenosine 8 μg/kg/min)	Coronary blood flow ([1]; adenosine 8 μg/kg/min)	Coronary perfusion pressure ([1]; adenosine 8 μg/kg/min)	Myocardial fractional shortening ([1]; adenosine 16 μg/kg/min)	Coronary blood flow ([1]; adenosine 16 μg/kg/min)	Coronary perfusion pressure ([1]; adenosine 16 μg/kg/min)	changes in coronary blood flow and myocardial fractional shortening ([1]; ischemia, adenosine 4, 8 and 16 μg/kg/min)	amelioration effect on myocardial ischemia ([1]; mongrel dogs in a state of excessive ischemia)	amelioration of lactate extraction ratio and pH ([2]; ischemia)	pH of venous blood [2, 4]	Lactate extraction ratio [2, 4]	pH of venous blood [2, 5]	Lactate extraction ratio [2, 5]	pH of venous blood [2, 6]	Lactate extraction ratio [2, 6]	Coronary blood flow [3]	inhibition of the effect of adenosine ([3]; 8-SPT 25 μg/kg/min)
Nc1ncnc2c1ncn2[C@@H]1O[C@H](CO)[C@@H](O)[C@H]1O [Adenosine, adenosine]	5.9%	18.2 ml/100 g/min	56.0 mmHg	3.9%	18.2 ml/100 g/min	56.0 mmHg	5.3%	18.2 ml/100 g/min	56.0 mmHg	no substantial changes in coronary blood flow and myocardial fractional shortening	unaffected	no such amelioration effects	7.19	-73.2%	7.25	-69.8%	7.22	-73.2%	–	–
COC(=O)[C@@H](N)CCCNC(=N)N[N+](=O)[O-] [L-NAME, N^G -nitro-L-arginine methyl ester, reference compound]	–	–	–	–	–	–	–	–	–	–	–	–	–	–	–	–	–	–	90.3 ml/100 g/min	–
Cn1c(=O)c2[nH]c(-c3ccc(S(=O)(=O)O)cc3)nc2n(C)c1=O [8-SPT, 8-sulfophenyltheophylline, reference compound]	–	–	–	–	–	–	–	–	–	–	–	–	–	–	–	–	–	–	93.7 ml/100 g/min	completely inhibited
